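Compound exposure: 48 hours, 5 concentrations, 96-well plates. TGI: concentration producing complete growth inhibition.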

Test systems include SF-539 CNS; RXF 393 renal; SK-OV-3 ovarian; COLO 205 colon; ACHN renal; CCRF-CEM leukemia; HCT-15 colon; NCI-H522 lung; A498 renal; KM12 colon; OVCAR-5 ovarian; MDA-MB-435.
Experiment in all cases: NCI anticancer screen, dose series, 48 h

For `CC(=O)NNc1nc(C)c(C(=O)/C=C/c2ccc(Cl)c(Cl)c2)s1`, the TGI with SF-539 CNS, with RXF 393 renal, with SK-OV-3 ovarian, in the assay with COLO 205 colon, in the assay with ACHN renal and with CCRF-CEM leukemia was above 100 µM in each case. The TGI with HCT-15 colon, in the assay on NCI-H522 lung, with A498 renal, with KM12 colon and with OVCAR-5 ovarian was above 100 µM throughout.
`CCOC(=O)C1SC(=Nc2ccc(Cl)cc2Cl)N=C1C` (stereo unspecified): the TGI with SF-539 CNS, in the assay on RXF 393 renal, in the assay with COLO 205 colon, with ACHN renal, in the assay with HCT-15 colon and in the assay with NCI-H522 lung was above 100 µM throughout. Moreover, the TGI in the assay on A498 renal, in the assay on KM12 colon and in the assay with OVCAR-5 ovarian was above 100 µM in each case.
Take `O=C(O)CCN(CCCN(CCC(=O)O)CCC(=O)O)CCC(=O)O`: the TGI in the assay with SF-539 CNS, in the assay on SK-OV-3 ovarian, in the assay with COLO 205 colon, with ACHN renal, in the assay with CCRF-CEM leukemia and in the assay with HCT-15 colon was above 100 µM each time. Further, the TGI in the assay on NCI-H522 lung, in the assay with A498 renal, with KM12 colon and in the assay with OVCAR-5 ovarian was above 100 µM each time.
`COc1ccc2c(c1)[n+]([O-])c(/C(C)=N/NC(=O)c1ccccc1O)c(C)[n+]2[O-]`: the TGI with SF-539 CNS, in the assay with RXF 393 renal, in the assay with SK-OV-3 ovarian, in the assay with ACHN renal, in the assay with CCRF-CEM leukemia and with HCT-15 colon was above 100 µM in each case. Further, the TGI with NCI-H522 lung, in the assay on KM12 colon and with OVCAR-5 ovarian was above 100 µM throughout.
On to `COc1cc(CNc2cnc3ccc(N)cc3n2)cc(OC)c1OC`, for which the TGI in the assay on SF-539 CNS, in the assay on RXF 393 renal, with SK-OV-3 ovarian, in the assay with COLO 205 colon, with ACHN renal and in the assay on CCRF-CEM leukemia was above 100 µM each time. The TGI in the assay on HCT-15 colon, with NCI-H522 lung, in the assay with A498 renal, in the assay with KM12 colon and in the assay on OVCAR-5 ovarian was above 100 µM in each case.
Consider `COc1ccccc1NC(=O)CC(=O)N1N=C(c2ccccc2)C(N=Nc2ccc(Cl)cc2)C1=O` (stereo unspecified), for which the TGI was above 100 µM in the assay on SF-539 CNS; 51.8 µM with SK-OV-3 ovarian; above 100 µM in the assay on COLO 205 colon; 47.3 µM in the assay with ACHN renal; above 100 µM in the assay with HCT-15 colon; above 100 µM in the assay with NCI-H522 lung. In addition, the values for the TGI with A498 renal, in the assay on KM12 colon and in the assay on OVCAR-5 ovarian were 35.2 µM, above 100 µM and above 100 µM, respectively.
For the compound `NC(CCCCNCc1ccccc1)C(=O)O` (stereo unspecified), the TGI in the assay on SF-539 CNS, in the assay on SK-OV-3 ovarian, with COLO 205 colon, in the assay on ACHN renal, in the assay with CCRF-CEM leukemia and in the assay on HCT-15 colon was above 100 µM throughout. For the same compound, the TGI in the assay on NCI-H522 lung, in the assay with A498 renal, with KM12 colon and with OVCAR-5 ovarian was above 100 µM throughout.
`CC(C)OP(=O)(OC(C)C)C(=NCCN=C(NNc1ccccc1[N+](=O)[O-])P(=O)(OC(C)C)OC(C)C)NNc1ccccc1[N+](=O)[O-]`: the TGI with SF-539 CNS is above 100 µM; in the assay on COLO 205 colon, 54.9 µM; with ACHN renal, above 100 µM; with CCRF-CEM leukemia it was 70.9 µM; in the assay with HCT-15 colon it was above 100 µM; in the assay with NCI-H522 lung, above 100 µM. In addition, the TGI with A498 renal is above 100 µM; in the assay with KM12 colon, above 100 µM; in the assay with OVCAR-5 ovarian, 72.8 µM.
`CN(C)C(=NC#N)N(Cc1ccccc1)Cc1ccccc1`: the TGI in the assay with SF-539 CNS, in the assay with RXF 393 renal, in the assay with SK-OV-3 ovarian, in the assay on COLO 205 colon, in the assay on ACHN renal and in the assay with CCRF-CEM leukemia was above 100 µM in each case. Besides, the TGI in the assay on HCT-15 colon is 30.1 µM; in the assay on NCI-H522 lung it was 81.5 µM; in the assay with A498 renal, above 100 µM; in the assay with KM12 colon, above 100 µM; with OVCAR-5 ovarian, above 100 µM.
As for `Cc1cc2c(cc1Cl)SC(NNC1=NCCN1)=NS2(=O)=O`, the TGI in the assay with SF-539 CNS, with RXF 393 renal, with SK-OV-3 ovarian, in the assay with COLO 205 colon, with ACHN renal and in the assay with CCRF-CEM leukemia was above 10 µM each time. Moreover, the TGI in the assay on HCT-15 colon, in the assay on NCI-H522 lung, in the assay with A498 renal, with KM12 colon, with OVCAR-5 ovarian and with MDA-MB-435 was above 10 µM throughout.
As to `Cc1cc(C)nc(NS(=O)(=O)c2ccc(NC(=O)NC(F)(F)F)cc2)n1`, the TGI with SF-539 CNS, in the assay on RXF 393 renal, in the assay on SK-OV-3 ovarian, in the assay with COLO 205 colon, with ACHN renal and in the assay on CCRF-CEM leukemia was above 100 µM each time. Also, the TGI in the assay on HCT-15 colon, in the assay on A498 renal, in the assay on OVCAR-5 ovarian and in the assay on MDA-MB-435 was above 100 µM in each case.
For `CCOC(=O)C(NC(=O)CC)(Nc1ccc(F)cc1F)C(F)(F)F` (stereo unspecified), the TGI in the assay on SF-539 CNS, in the assay on RXF 393 renal, in the assay with SK-OV-3 ovarian, with COLO 205 colon, with ACHN renal and with CCRF-CEM leukemia was above 100 µM each time. Further, the TGI in the assay on HCT-15 colon, in the assay on A498 renal, with OVCAR-5 ovarian and in the assay with MDA-MB-435 was above 100 µM throughout.

The values above are taken from PubChem BioAssay (NCI).
